Measured values from patent US20240398727A1, “(S)-5-(1-(3,5-BIS(TRIFLUOROMETHYL)PHENOXY)ETHYL)CYCLOHEXANE-1,3-DIONE (NU-9) IMPROVES THE HEALTH OF DISEASED UPPER MOTOR NEURONS” (Northwestern University, priority 2021, published 2024).

Tests used:
[1] = tested on: male BALB/c mice; settings: mouse, in vivo, po, 100 mg/kg/day
Description: Repeated dose toxicity study was performed at Laboratory Animal House (LAH), Toxicology, Sai Life Science Ltd., Chrysalis Enclave, Phase II, Hinjewadi, Pune-411 057, Maharashtra, India.

[2] = in vivo; settings: BALB/c, mouse, 100 mg/kg/day
[3] = tested on: UMNs of hSOD1^G93A-UeGFP mice; test: Sholl analysis of arborization and branching, UMNs diseased by mSOD1 toxicity; type: cell-based, mouse; settings: 3 days in culture, data not shown
Description: (§1) UMN Cultures. P3 motor cortices isolated from WT-UeGFP, hSOD1^G93A-UeGFP, and prpTDP-43^A315T-UeGFP mice were dissected, dissociated, and cultured on glass coverslips (4×10^4 cells per 18 mm diameter coverslip, Fisherbrand) coated with poly-L-lysine (10 mg/mL, Sigma) as previously described (Ozdinler and Macklis 2006). Neurons were cultured in SFM [0.034 mg/L BSA, 1 mM L-glutamine, 25 U/mL penicillin, 0.025 mg/mL streptomycin, 35 mM glucose, and 0.5% B27 in Neurobasal-A medium (Life Technologies)] in a humidified tissue culture incubator in the presence of 5% CO2 at 37° C. […] Cultures were fixed after 3 days in vitro (DIV).
(§2) UMNs were quantitatively analyzed for differences in neurite length and arborization complexity. Images taken with a 20× objective on the epifluorescent microscope (Nikon) were analyzed using the Neurite Tracer plugin from FIJI (NIH), which enables semi-autonomous tracing to measure the length of the axon. The aggregation of the neurite tracings centered at the soma generates a profile available for Sholl analysis.

[4] = tested on: UMNs of hSOD1^G93A-UeGFP mice; test: Axon outgrowth of UMNs diseased by mSOD1 toxicity in dissociated motor cortex culture; type: cell-based, mouse; settings: 3 days in vitro; for average length of UMN axons: SFM control 227.62±19.63 μm, WT 321.41±17.54 μm
From the text: (§3) Mice. All animal procedures were approved by the Northwestern University Animal Care and Use committee and comply with the standards of the National Institutes of Health. All mice were on C57BL/6 background. Transgenic hemizygous males expressing a high copy number of the human SOD1 gene with a G93A mutation (B6SJL-Tg (SOD1*G93A)1Gur/J; The Jackson Laboratory) were bred to hemizygous UCHL1-eGFP females to generate hSOD1^G93A-UeGFP and WT-UeGFP (control) mice. UCHL1-eGFP mice were generated in the Ozdinler Lab; they are reporter lines for UMNs (Yasvoina, Genc et al. 2013), and are now available at Jackson Laboratory (stock no. 022476). Hemizygous UCHL1-eGFP females were bred to hemizygous prpTDP-43^A315T mice (procured from Jackson Laboratory, stock no. 010700) to generate prpTDP-43^A315T-UeGFP mice. prpTDP-43^A315T mice were supplied with gel diet (DietGel 76A, ClearH2O, ME, USA) to eliminate gastrointestinal (GI) complications. Transgenic mice were identified by PCR amplification of DNA extracted from their tail, as previously described (Gurney, Pu et al. 1994, Wegorzewska, Bell et al. 2009, Yasvoina, Genc et al. 2013, Gautam, Jara et al. 2019). Mice with different genotypes are abbreviated in the figures as follows: WT-UeGFP (control) mice=G mice; hSOD1^G93A-UeGFP mice=GS mice; prpTDP-43^A315T-UeGFP mice=GTDP mice.
(§4) Compound preparation and delivery. NU-9 was prepared as 100 μM stock in dimethylsulfoxide (DMSO) and added to serum free medium (SFM) at a final concentration of 400 nM (4 μl per 1 ml SFM). […] Edaravone (Sigma-Aldrich) was prepared as 1 mM stock in DMSO and added at a final concentration of 1 μM in SFM (1 μl per 1 ml SFM). Amylyx AMX-0035 compound was a combination of 1 mM of 4-Phenylbutyric acid (4-PBA, Sigma Aldrich)+100 μM Tauroursodeoxycholic Acid, Sodium Salt (TUDCA, Millipore Sigma) added into SFM (4-PBA was prepared as a 21.5 mM stock in water and added at 46.5 μl per 1 ml SFM, TUDCA was prepared as 20 mM stock in water, and added at 5 μl per 1 ml SFM).
(§5) UMN Cultures. P3 motor cortices isolated from WT-UeGFP, hSOD1^G93A-UeGFP, and prpTDP-43^A315T-UeGFP mice were dissected, dissociated, and cultured on glass coverslips (4×10^4 cells per 18 mm diameter coverslip, Fisherbrand) coated with poly-L-lysine (10 mg/mL, Sigma) as previously described (Ozdinler and Macklis 2006). […]
as §2, with “The aggregation of the neurite tracings centered at the soma generates a profile available for Sholl analysis.” left out

[5] = tested on: UMNs from prpTDP-43^A315T-UeGFP mice; test: Sholl analysis of arborization and branching, UMNs with TDP-43 pathology; type: cell-based, mouse; settings: prpTDP-43^A315T-UeGFP UMNs; data not shown
Description: as §1, §2
Statistical analysis. All analyses were performed using Prism software (GraphPad Software). The D'Agostino and Pearson normality test was performed on all datasets. Statistical differences between more than two groups were determined by one-way ANOVA followed by the Tukey's post-hoc multiple-comparison test. […]

[6] = male, BALB/c, mouse, in vivo, po
[7] = Plasma, brain and CNS concentrations after repeated oral dosing; settings: mice, 100 mg/kg/day via daily gavage
[8] = tested on: UMNs from prpTDP-43^A315T-UeGFP mice; type: cell-based; settings: prpTDP-43^A315T-UeGFP UMNs, 3 days in vitro; for average length of the axons of UMNs: SFM control 199.52±21.15 μm, WT 321.41±17.54 μm
From the text: as §3, §4, §5
as §2, with “The aggregation of the neurite tracings centered at the soma generates a profile available for Sholl analysis.” left out

[9] = literature value; cited from earlier work
[10] = tested on: misfolded SOD1 (mSOD1) mouse model; settings: literature (Snow 2003, Scott 2008); cited from earlier work
[11] = NU-9 400 nM, riluzole 500 nM, edaravone 1 μM
[12] = riluzole 500 nM, edaravone 1 μM

Row | SMILES | mortality [1] | concentration at 7 day ([2]; CNS, oral) | Tmax ([2]; male, plasma, po) | UMN arborization (Sholl measurements) [3] | percent of UMNs with an axon within the range of 300-399 μm ([4]; NU-9 400 nM) | average length of UMN axons [4, 11] | neuronal arborization and branching (Sholl analyses) [5] | time till which plasma concentrations were quantifiable [6] | time up to which brain concentrations were quantifiable [6] | dose (concentration) detected in CNS [7] | percentage of UMNs with axons longer than 300 μm ([8]; NU-9 400 nM, vehicle 26%) | average length of the axons of UMNs [8, 11] | concentration reported to be present in the CNS after the optimum dose used in clinical trials [9] | overall axon outgrowth (distribution of longest axons) [4, 12] | percentage of UMNs with axons in the range of 200-399 μm [8, 12] | longevity of the mSOD1 mouse model [10]
1 | C[C@H](Oc1cc(C(F)(F)F)cc(C(F)(F)F)c1)C1CC(=O)CC(=O)C1 [NU-9, (S)-5-(1-(3,5-bis(trifluoromethyl)phenoxy)ethyl)cyclohexane-1,3-dione] | did not result in mortality | 400 nM | 30 min | more complex and arborized UMNs | about 44.4% | 346.76±12.32 μm | enhanced neuronal arborization and branching | up to 24 h | up to 24 h | 400 nM | 88% | 397.73±14.09 μm |  |  |  | 
2 | CC1=NN(c2ccccc2)C(=O)C1 [edaravone, 2,4-Dihydro-5-methyl-2-phenyl-3H-pyrazol-3-one, reference compound] |  |  |  | improved UMN arborization, but to a lesser extent |  | 289.58±22.71 μm |  |  |  |  |  | 282.57±32.39 μm | 1000 nM | improved overall axon outgrowth | 62% | 
3 | Nc1nc2ccc(OC(F)(F)F)cc2s1 [riluzole, 2-Amino-6-(trifluoromethoxy)benzothiazole] |  |  |  |  |  |  |  |  |  |  |  |  |  |  |  | failed to improve the longevity
